Laboratory results published in article PMC11811597, “Phenomics‐Based Discovery of Novel Orthosteric Choline Kinase Inhibitors” (Angewandte Chemie (International Ed. in English), 2025).

Assays:
[1] = tested on: MCF7, MDA‐MB‐231, HEK293, HepG2, U2OS and K562 cells; test: 72 h cell viability assay (Cell Titer-Glo); assay type: cell-based, human; conditions: 0-50 μM
Description: We compared morphological fingerprints of multiple parameters to assess overall biological similarity (Biol. Sim.) (Figure 1B).
A-366 and UNC0638 were purchased from Tocris. ARIAD and V-11-07-11 were purchased from Wuxi Apptec. UNC0737 and UNC0965 were synthesised as previously described.[1] Hemicholinium-3 and pyruvate kinase/lactic dehydrogenase enzymes were purchased from Sigma Aldrich. Aqueous and organic solvents were MS-grade and acquired by Sigma Aldrich unless stated otherwise.
MDA-MB-231, MCF7 and HEK293 cells were cultured in DMEM (Gibco, #11965092) supplemented with 10% FBS. K562 were cultured in IMDM (Gibco, #12440053) supplemented with 10% FBS. HepG2 were cultured in MEM (Gibco, #11095080) supplemented with 10 % FBS. […]
cultured in McCoy’s 5A (Sigma, M8403) supplemented with 10 % FBS and 1x GlutaMAX (Gibco, #35050061). Cells were maintained at 37 °C in a humidified 5% CO2 atmosphere. Peripheral blood mononuclear cells (PBMC) were isolated from healthy blood donors by density centrifugation.
MDA-MB-231, MCF7 or HEK293 cells (7.5 × 10^4 cells/mL) were each plated into x1 white 384-well polystyrene plate (Greiner Bio-One Ltd). A-366, […] and UNC0737 were directly added to each well of the cell line plates, at final concentrations 0-50 μM and incubated for 72 h at 37 °C/ 5% CO2.
Cell Titer-Glo® reagent was added to each well and total luminescence readings were performed within 15 min using the PHERAstar FSX (BMG Labtech). The cell viability results were normalised to the DMSO control and plotted using the sigmoidal dose-response (variable slope) equation in […]
Chemical Proteomics Drug Pulldown
For lysate generation MCF7 cells were grown until approximately 80% confluency before being pelleted and washed with PBS. […]
MDA-MB-231, […], HepG2, U2OS and K562 cells following treatment with A-366, UNC0638 and UNC0737 after 72 h measured by Cell Titer Glo assay (n=3). […]

CHKA [2] = target: T1, CHKA (Homo sapiens, UniProt P35790); test: Differential scanning fluorimetry (DSF); assay type: binding; design: host or cells: E. coli BL21(DE3); conditions: 10 µM compound, 2 µM CHKA
Method: mM NaCl, 5% glycerol, 500 mM imidazole, 0.5% TCEP, pH 7.5), the eluent was concentrated, and further purified by size exclusion chromatography using a HiLoad 16/600 Superdex S200 column (Cytiva) pre-equilibrated in Buffer C (20 mM HEPES, 150 mM NaCl, pH 7.5). The resulting protein purity was assessed by SDS-PAGE, and protein identity was confirmed by tryptic digest analysis. Protein concentration was determined to be 35.5 mg/mL, and was calculated using a theoretical molar extinction coefficient of 58830 M-1cm-1 as determined by ProtParam.[5] […]
Differential Scanning Fluorimetry (DSF)
DSF buffer (20 mM HEPES, 150 mM NaCl, 0.5 mM TCEP, pH 7.5) containing 5x SYPRO Orange (Thermo Fisher Scientific) and CHKA (2 µM) was incubated with 10 µM compound at 2% DMSO final concentration in a 96-well semi-skirted real time PCR plate. Fluorescence was measured in each well over a 40-80 °C gradient using a Stratagen MX3005p qPCR instrument (Agilent Technologies). […]

[3] = tested on: primary human cell‐based tissue and disease models; test: BioMAP Diversity PLUS panel; conditions: 12 systems, Pearson's correlation >0.7
Description: Having confirmed that UNC0638 and UNC0737 are potent bona fide CHKA inhibitors, we next turned our attention to further investigate the role of CHKA in cellular signalling. While CHKA has been studied extensively in the context of malignant disease, there has been a growing acknowledgment of its relevance in immune metabolism.[9, 10] […] We profiled UNC0638 and UNC0737 alongside the orthogonal CHKA inhibitors V‐11‐0711 and ARIAD against the BioMAP Diversity PLUS panel (Figures S7).[24] This set comprises 148 distinct biomarkers across 12 systems, including panels for systemic immune responses. […] The decrease in IgG secretion was accompanied by a reduction in stimulation‐induced B cell maturation into CD27^+IgD^− memory CD19^+ B cells (Figure 4D). […]
consecutive concentrations change in the same direction relative to vehicle controls, are outside of the significance envelope, and have at least one concentration with an effect size > 20% (|log10ratio| > 0.1). Biomarker key activities are described as modulated if these activities increase in some systems, but decrease in others. Cytotoxicity is indicated on the profile plot by a thin black arrow above the x- […]
Cytotoxicity and antiproliferative arrows only require one concentration to meet the indicated threshold for profile annotation. […]

CHKA [4] = target: T1, CHKA; test: Isothermal calorimetry (ITC); assay type: binding; design: host or cells: E. coli BL21(DE3)
Method: mM NaCl, 5% glycerol, 500 mM imidazole, 0.5% TCEP, pH 7.5), the eluent was concentrated, and further purified by size exclusion chromatography using a HiLoad 16/600 Superdex S200 column (Cytiva) pre-equilibrated in Buffer C (20 mM HEPES, 150 mM NaCl, pH 7.5). The resulting protein purity was assessed by SDS-PAGE, and protein identity was confirmed by tryptic digest analysis. Protein concentration was determined to be 35.5 mg/mL, and was calculated using a theoretical molar extinction coefficient of 58830 M-1cm-1 as determined by ProtParam.[5]
Isothermal Calorimetry (ITC)
ITC experiments were performed in a buffer containing 20 mM HEPES pH 7.5 and 200 mM NaCl, using an VP-ITC microcalorimeter (MicroCal) at 15 °C. The protein concentration was 200 µM and compounds were tested at 20 µM. The titrations were conducted using an initial injection of 4 μL followed by further 29 injections of 8 μL each. Thermodynamic parameters were calculated using ΔG = ΔH − TΔS = −RT ln KB, where ΔG, ΔH, and ΔS are the changes in free energy, enthalpy, and entropy of binding, respectively. Single binding models were employed to fit the data. […]

T1 sequence (P35790 75-457 limits assumed): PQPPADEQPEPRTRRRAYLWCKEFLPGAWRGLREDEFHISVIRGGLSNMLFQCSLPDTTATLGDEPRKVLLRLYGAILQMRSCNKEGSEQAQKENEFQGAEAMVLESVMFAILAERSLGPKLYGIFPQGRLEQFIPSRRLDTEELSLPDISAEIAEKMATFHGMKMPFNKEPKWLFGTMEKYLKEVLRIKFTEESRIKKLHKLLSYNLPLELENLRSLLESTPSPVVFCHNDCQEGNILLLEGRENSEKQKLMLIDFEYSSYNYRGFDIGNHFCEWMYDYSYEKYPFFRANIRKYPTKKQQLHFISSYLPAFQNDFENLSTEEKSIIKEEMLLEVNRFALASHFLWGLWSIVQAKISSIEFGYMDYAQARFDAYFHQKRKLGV

| SMILES | effect on cell viability [1] | thermal stabilisation of CHKA (DSF) (CHKA [2]) | clustering of overall BioMAP responses across all biomarkers [3] | Kd (CHKA [4]) |
| --- | --- | --- | --- | --- |
| COc1cc2c(cc1OCCCN1CCCC1)N=C(N)C21CCC1 [A‐366] | less efficient in inducing cancer cell death | not | did not exhibit any overlap | – |
| COc1cc2nc(N3CCCN(C)CC3)nc(NC3CCN(Cc4ccccc4)CC3)c2cc1OC [BIX‐01294] | – | exhibited CHKA stabilisation albeit to lesser degree than UNC0737 | – | – |
| C[N+]1(C)CCOC(O)(c2ccc(-c3ccc(C4(O)C[N+](C)(C)CCO4)cc3)cc2)C1 (stereo not drawn) [HC3, hemicholinium‐3] | – | – | – | 40.6 nM |
| COc1cc2c(NC3CCN(C(C)C)CC3)nc(N3CCC(F)(F)CC3)nc2cc1OCCCN1CCCC1 [UNC0642] | – | exhibited CHKA stabilisation albeit to lesser degree than UNC0737 | – | – |
